Laboratory results taken from patent publication US20120100990A1, “4 -AMINOPICOLINATES AND THEIR USE AS HERBICIDES” (SYNGENTA CROP PROTECTION LLC, priority 2009, published 2012).

Key:
Type in all cases: in vivo
Setaria faberi (SETFA) [1] = test: Pre-emergence biological efficacy, glasshouse pot test; conditions: 312 h, 1,000 g/ha, evaluated after 13 days, 100=total damage, 0=no damage, read-out: Percentage damage caused to weed species, pre-emergence, SETFA
Procedure, shortened: (§1)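 Damage was rated 13 days after treatment on a 0–100 scale, where 100 is total plant kill. Pots sown one day earlier were sprayed with 1000 or 250 g/ha test compound in aqueous acetone/water (50:50) containing 0.5% Tween 20, and grown at 24/16 °C with 14 h light, 65% humidity and twice-daily watering.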

[2] = system: Alopecurus myosuroides (ALOMY); test: as above; conditions: 312 h, 1,000 g/ha, evaluated after 13 days, 100=total damage, 0=no damage, read-out: Percentage damage caused to weed species, pre-emergence, ALOMY
Procedure, shortened: as §1

[3] = system: Ipomea hederaceae (IPOHE); test: as above; conditions: Ipomoea hederacea, 312 h, 1,000 g/ha, evaluated after 13 days, 100=total damage, 0=no damage, read-out: Percentage damage caused to weed species, pre-emergence, IPOHE
Procedure, shortened: as §1

[4] = system: Echinochloa crus-galli (ECHCG); test: as above; conditions: 312 h, 1,000 g/ha, evaluated after 13 days, 100=total damage, 0=no damage, read-out: Percentage damage caused to weed species, pre-emergence, ECHCG
Procedure, shortened: as §1

[5] = system: Amaranthus retroflexus (AMARE); test: as above; conditions: 312 h, 1,000 g/ha, evaluated after 13 days, 100=total damage, 0=no damage, read-out: Percentage damage caused to weed species, pre-emergence, AMARE
Procedure, shortened: as §1

Solanum nigrum (SOLNI) [6] = test: as above; conditions: 312 h, 1,000 g/ha, evaluated after 13 days, 100=total damage, 0=no damage, read-out: Percentage damage caused to weed species, pre-emergence, SOLNI
Procedure, shortened: as §1

Setaria faberi (SETFA) [7] = test: Post-emergence biological efficacy, glasshouse pot test; conditions: 312 h, 1,000 g/ha, evaluated after 13 days, 100=total damage, 0=no damage, read-out: Percentage damage caused to weed species, post-emergence, SETFA
Procedure, shortened: (§2)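 Scores on a 0 (undamaged) to 100 (dead) scale reflect injury 13 days post-treatment of 8-day-old potted plants sprayed at 1000 or 250 g/ha.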

[8] = system: Alopecurus myosuroides (ALOMY); test: as above; conditions: 312 h, 1,000 g/ha, evaluated after 13 days, 100=total damage, 0=no damage, read-out: Percentage damage caused to weed species, post-emergence, ALOMY
Procedure, shortened: as §2

[9] = system: Ipomea hederaceae (IPOHE); test: as above; conditions: Ipomoea hederacea, 312 h, 1,000 g/ha, evaluated after 13 days, 100=total damage, 0=no damage, read-out: Percentage damage caused to weed species, post-emergence, IPOHE
Procedure, shortened: as §2

[10] = system: Echinochloa crus-galli (ECHCG); test: as above; conditions: 312 h, 1,000 g/ha, evaluated after 13 days, 100=total damage, 0=no damage, read-out: Percentage damage caused to weed species, post-emergence, ECHCG
Procedure, shortened: as §2

[11] = system: Amaranthus retroflexus (AMARE); test: as above; conditions: 312 h, 1,000 g/ha, evaluated after 13 days, 100=total damage, 0=no damage, read-out: Percentage damage caused to weed species, post-emergence, AMARE
Procedure, shortened: as §2

Solanum nigrum (SOLNI) [12] = test: as above; conditions: 312 h, 1,000 g/ha, evaluated after 13 days, 100=total damage, 0=no damage, read-out: Percentage damage caused to weed species, post-emergence, SOLNI
Procedure, shortened: as §2

Row | SMILES | pest or weed control at 1000 g/ha (Setaria faberi (SETFA) [1]) | pest or weed control at 1000 g/ha [2] | pest or weed control at 1000 g/ha [3] | pest or weed control at 1000 g/ha [4] | pest or weed control at 1000 g/ha [5] | pest or weed control at 1000 g/ha (Solanum nigrum (SOLNI) [6]) | pest or weed control at 1000 g/ha (Setaria faberi (SETFA) [7]) | pest or weed control at 1000 g/ha [8] | pest or weed control at 1000 g/ha [9] | pest or weed control at 1000 g/ha [10] | pest or weed control at 1000 g/ha [11] | pest or weed control at 1000 g/ha (Solanum nigrum (SOLNI) [12])
1 | COC(=O)c1nc(Cl)cc(NCc2ccccc2F)c1Cl [Compound 6-2, 3,6-Dichloro-4-[(2-fluorophenylmethyl)-amino]-pyridine-2-carboxylic acid methyl ester] | 80% | 70% | 90% | 60% | 100% | 100% | 90% | 60% | 70% | 40% | 100% | 100%
2 | COC(=O)c1nc(Cl)cc(NCc2ccccc2OC)c1Cl [Compound 73-2, 3,6-Dichloro-4-[(2-methoxyphenyl-methyl)-amino]-pyridine-2-carboxylic acid methyl ester] | 80% | 50% | 100% | 20% | 100% | 100% | 80% | 40% | 70% | 40% | 100% | 90%
3 | C=Cc1c(NCc2ccccc2F)cc(Cl)nc1C(=O)OC [Compound 6-12, 6-Chloro-3-ethenyl-4-[(2-fluorophenyl-methyl)-amino]-pyridine-2-carboxylic acid methyl ester] | 40% | 40% | 60% | 30% | 100% | 100% | 80% | 20% | 70% | 20% | 100% | 90%
4 | C=Cc1c(NCc2ccccc2Cl)cc(Cl)nc1C(=O)OC [Compound 3-12, 6-Chloro-4-[(2-chlorophenyl-methyl)-amino]-3-ethenyl-pyridine-2-carboxylic acid methyl ester] | 10% | 20% | 50% | 0% | 100% | 90% | 10% | 0% | 40% | 20% | 100% | 90%
5 | C=Cc1c(NCC2CC2)cc(Cl)nc1C(=O)OC [Compound 1-12, 6-chloro-4-cyclopropylmethylamino-3-ethenyl-pyridine-2-carboxylic acid methyl ester] | 90% | 80% | 90% | 90% | 100% | 100% | 90% | 70% | 70% | 80% | 100% | 90%
6 | COC(=O)c1nc(Cl)cc(N(CCO)Cc2ccco2)c1Cl [Compound 66-2, 3,6-Dichloro-4-[N-(furan-2-ylmethyl)-N-(2-hydroxyethyl)-amino]-pyridine-2-carboxylic acid methyl ester] | 70% | 80% | 100% | 50% | 100% | 100% | 0% | 20% | 60% | 20% | 100% | 80%
7 | COC(=O)c1nc(Cl)cc(NCC2CCCCCCC2)c1Cl [Compound 69-2, 4-Cyclooctylmethyl-amino-3,6-dichloro-pyridine-2-carboxylic acid methyl ester] | 10% | 20% | 80% | 10% | 90% | 100% | 0% | 10% | 70% | 0% | 100% | 90%
8 | C=Cc1c(NCc2ccccc2)cc(Cl)nc1C(=O)OC [Compound 2-12, 6-Chloro-3-ethenyl-4-phenylmethyl-amino-pyridine-2-carboxylic acid methyl ester] | 80% | 80% | 80% | 30% | 100% | 100% | 80% | 60% | 70% | 50% | 100% | 100%
9 | C=Cc1c(NCc2ccco2)cc(-c2ccc(Cl)c(OC)c2F)nc1C(=O)OC [Compound 26-174, 6-(4-chloro-2-fluoro-3-methoxy-phenyl)-3-ethenyl-4-[(furan-2-ylmethyl)-amino]-pyridine-2-carboxylic acid methyl ester] | 10% | 20% | 90% | 30% | 80% | 90% | 0% | 10% | 50% | 20% | 100% | 100%
10 | C=Cc1c(NCc2ccccc2OC)cc(Cl)nc1C(=O)OC [Compound 73-12, 6-Chloro-3-ethenyl-4-[(2-methoxyphenyl-methyl)-amino]-pyridine-2-carboxylic acid methyl ester] | 80% | 70% | 70% | 20% | 100% | 100% | 80% | 20% | 50% | 20% | 100% | 90%
11 | C=Cc1c(NCc2ncccc2C)cc(Cl)nc1C(=O)OC [Compound 33-12, 6-Chloro-3-ethenyl-4-[(3-methyl-pyridin-2-ylmethyl)-amino]-pyridine-2-carboxylic acid methyl ester] | 80% | 70% | 100% | 80% | 100% | 100% | 90% | 80% | 70% | 80% | 100% | 90%
